The subject of series [1] is Hepatitis C viral-related liver disease. Conditions: oral; cited from earlier work.
Series [2] relates to A10 rat aorta smooth muscle cells. Particulars: cited from earlier work.
A further series can be described thus: chelation of iron(III). The series is classed as physicochemical.
A further series concerns renal fibrosis. Conditions: rat, in vivo; cited from earlier work.
For the next series, the target named is PDGFR-α (Homo sapiens, UniProt P16234). Particulars: cellular studies; cited from earlier work.
The next series addresses kit in H526 cells (Homo sapiens, UniProt P10721). Conditions: pretreatment of H526 cells; cited from earlier work.
A further series has as its target VEGF-R1 (Homo sapiens, UniProt P17948). Particulars: purified enzymes; cited from earlier work.
For series [3], the target named is fibroblast growth factor receptor 1 (FGF-R1) (Homo sapiens, UniProt P11362). Particulars: purified enzymes; cited from earlier work.
Another series has as its target TIE-2 [TEK] (Homo sapiens, UniProt Q02763). Particulars: purified enzymes; cited from earlier work.
Another series relates to cardiac fibrosis. Conditions: rat, in vivo; cited from earlier work.
Series [4] concerns dimethylnitrosamine-induced hepatic fibrosis. Conditions: cited from earlier work.
The subject of series [5] is KIT with mutations in the juxtamembrane domain-coding region. Particulars: cited from earlier work.
In the next series the target is PDGFR-β (Homo sapiens, UniProt P09619). Particulars: cellular studies; cited from earlier work.
The next series addresses T1, TEL-PDGFRβ (Homo sapiens, UniProt P09619).
T1 construct: host or cells: transgenic mice; the other entry of the earlier key: ETV6 (P41212, Transcription factor ETV6)
Conditions: mouse, in vivo; cited from earlier work.

For series [6], the system named is doxorubicin-induced toxicity (heart and kidney). Conditions: mortality, abdominal fluid, cardiac and renal lesions; cited from earlier work.
In a further series the test system is heavy metal challenge. Conditions: oral; cited from earlier work.
A further series in a line: chelation of magnesium. The series is classed as physicochemical.
In a further series the target is c-MET (Homo sapiens, UniProt P08581). Particulars: purified enzymes; cited from earlier work.
Series [7] has as its system Alpha-1 glycoprotein (AGP). Particulars: cited from earlier work.
For series [8], the system named is KIT with mutations affecting the activation loop. Conditions: cited from earlier work.
Another series can be described thus: in vivo. Conditions: Sprague-Dawley, rat.
The next series concerns IPF. Particulars: cited from earlier work.
Series [9] relates to committed progenitor cells from patients with CML. Particulars: cited from earlier work.
In series [10] the test system is radiation-induced lung fibrosis. Conditions: mouse, in vivo; cited from earlier work.
Another series deals with fibrosis. Conditions: rat, in vivo; cited from earlier work.
The target of another series is c-kit (Homo sapiens, UniProt P10721). Conditions: kinase activity at 5 μM; cited from earlier work.
The target in another series is KIT receptor. Conditions: cited from earlier work.
The conditions of series [11]: in vivo.
In the next series the target is VEGF-R2 (Homo sapiens, UniProt P35968). Conditions: purified enzymes; cited from earlier work.
For series [12] the following is noted: Sprague-Dawley, rat, in vivo, po, 5.6 mg/kg.
A further series concerns CML. Particulars: cited from earlier work.
Series [13] concerns the target epidermal growth factor (EGF) receptor intracellular domain (Homo sapiens, UniProt P00533). Particulars: purified enzymes; cited from earlier work.
Series [14] concerns bleomycin-induced pulmonary fibrosis. Conditions: cited from earlier work.
The test system of series [15] is kidney fibrosis following diabetic challenge. Particulars: oral; cited from earlier work.
The next series has as its system liver fibrosis. Conditions: cited from earlier work.
The target of a further series is CYP3A4 (Homo sapiens, UniProt P08684). Conditions: cited from earlier work.
The test system of another series is lung cancer. Particulars: cited from earlier work.
Another series addresses JAK2V617F (Homo sapiens, UniProt O60674, V617F). Conditions: cited from earlier work.
For series [16] the following is noted: single- and repeat-dosing; cited from earlier work.
A further series addresses p110a (Homo sapiens, UniProt P42336). Particulars: cited from earlier work.
The subject of the next series is breast cancer stem cells. Conditions: mouse, in vivo; cited from earlier work.
For the next series, the system named is p110-γ and p110-δ. Conditions: cited from earlier work.
The target in a further series is mTOR (Homo sapiens, UniProt P42345). Conditions: cited from earlier work.
The next series relates to PI3K. Particulars: cited from earlier work.

The structures appear in SMILES notation. pIC50: −log10 of the molar value. “Also recorded” adds a separate entry of the source.

T1 sequence (P09619 554-1106 limits assumed): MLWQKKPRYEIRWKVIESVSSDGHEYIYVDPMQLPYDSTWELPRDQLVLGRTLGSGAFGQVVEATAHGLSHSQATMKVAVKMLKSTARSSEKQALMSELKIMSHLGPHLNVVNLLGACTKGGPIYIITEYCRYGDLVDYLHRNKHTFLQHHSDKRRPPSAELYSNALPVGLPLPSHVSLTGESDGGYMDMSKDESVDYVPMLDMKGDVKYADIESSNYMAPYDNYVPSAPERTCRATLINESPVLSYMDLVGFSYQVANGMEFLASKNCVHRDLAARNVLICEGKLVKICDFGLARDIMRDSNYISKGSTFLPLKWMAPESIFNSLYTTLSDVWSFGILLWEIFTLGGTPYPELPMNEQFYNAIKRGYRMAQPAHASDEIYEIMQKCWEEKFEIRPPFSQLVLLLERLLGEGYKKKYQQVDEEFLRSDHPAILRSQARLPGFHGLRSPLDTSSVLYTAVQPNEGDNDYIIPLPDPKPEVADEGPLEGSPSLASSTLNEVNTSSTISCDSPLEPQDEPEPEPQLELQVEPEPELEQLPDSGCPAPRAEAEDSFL
Chain of kit in H526 cells (P10721 26-976): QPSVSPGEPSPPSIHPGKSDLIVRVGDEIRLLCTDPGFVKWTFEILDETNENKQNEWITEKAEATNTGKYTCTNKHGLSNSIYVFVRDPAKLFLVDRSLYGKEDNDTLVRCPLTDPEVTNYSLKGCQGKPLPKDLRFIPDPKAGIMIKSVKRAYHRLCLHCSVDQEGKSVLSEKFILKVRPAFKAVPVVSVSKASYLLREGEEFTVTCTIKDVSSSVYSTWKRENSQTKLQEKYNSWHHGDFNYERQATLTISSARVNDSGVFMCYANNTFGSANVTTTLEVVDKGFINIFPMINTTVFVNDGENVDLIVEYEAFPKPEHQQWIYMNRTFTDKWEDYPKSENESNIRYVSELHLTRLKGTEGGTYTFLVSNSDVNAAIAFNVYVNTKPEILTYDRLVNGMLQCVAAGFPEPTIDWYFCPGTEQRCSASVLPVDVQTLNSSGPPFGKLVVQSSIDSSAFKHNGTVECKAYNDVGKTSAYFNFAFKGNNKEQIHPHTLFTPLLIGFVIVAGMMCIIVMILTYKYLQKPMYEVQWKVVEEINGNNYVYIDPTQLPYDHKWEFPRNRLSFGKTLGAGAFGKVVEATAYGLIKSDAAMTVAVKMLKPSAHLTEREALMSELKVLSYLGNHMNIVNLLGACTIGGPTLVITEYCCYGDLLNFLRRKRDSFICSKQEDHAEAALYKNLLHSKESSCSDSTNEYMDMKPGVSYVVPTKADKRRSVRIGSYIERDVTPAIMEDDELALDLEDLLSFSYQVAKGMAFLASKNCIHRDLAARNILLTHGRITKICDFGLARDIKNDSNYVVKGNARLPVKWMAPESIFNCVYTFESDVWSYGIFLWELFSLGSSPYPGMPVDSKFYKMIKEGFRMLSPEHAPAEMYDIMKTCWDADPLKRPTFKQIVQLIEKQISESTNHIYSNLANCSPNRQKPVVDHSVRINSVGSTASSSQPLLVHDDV
Chain of c-kit (P10721 26-976): as above
Chain of PDGFR-α (P16234 24-1089, species assumed): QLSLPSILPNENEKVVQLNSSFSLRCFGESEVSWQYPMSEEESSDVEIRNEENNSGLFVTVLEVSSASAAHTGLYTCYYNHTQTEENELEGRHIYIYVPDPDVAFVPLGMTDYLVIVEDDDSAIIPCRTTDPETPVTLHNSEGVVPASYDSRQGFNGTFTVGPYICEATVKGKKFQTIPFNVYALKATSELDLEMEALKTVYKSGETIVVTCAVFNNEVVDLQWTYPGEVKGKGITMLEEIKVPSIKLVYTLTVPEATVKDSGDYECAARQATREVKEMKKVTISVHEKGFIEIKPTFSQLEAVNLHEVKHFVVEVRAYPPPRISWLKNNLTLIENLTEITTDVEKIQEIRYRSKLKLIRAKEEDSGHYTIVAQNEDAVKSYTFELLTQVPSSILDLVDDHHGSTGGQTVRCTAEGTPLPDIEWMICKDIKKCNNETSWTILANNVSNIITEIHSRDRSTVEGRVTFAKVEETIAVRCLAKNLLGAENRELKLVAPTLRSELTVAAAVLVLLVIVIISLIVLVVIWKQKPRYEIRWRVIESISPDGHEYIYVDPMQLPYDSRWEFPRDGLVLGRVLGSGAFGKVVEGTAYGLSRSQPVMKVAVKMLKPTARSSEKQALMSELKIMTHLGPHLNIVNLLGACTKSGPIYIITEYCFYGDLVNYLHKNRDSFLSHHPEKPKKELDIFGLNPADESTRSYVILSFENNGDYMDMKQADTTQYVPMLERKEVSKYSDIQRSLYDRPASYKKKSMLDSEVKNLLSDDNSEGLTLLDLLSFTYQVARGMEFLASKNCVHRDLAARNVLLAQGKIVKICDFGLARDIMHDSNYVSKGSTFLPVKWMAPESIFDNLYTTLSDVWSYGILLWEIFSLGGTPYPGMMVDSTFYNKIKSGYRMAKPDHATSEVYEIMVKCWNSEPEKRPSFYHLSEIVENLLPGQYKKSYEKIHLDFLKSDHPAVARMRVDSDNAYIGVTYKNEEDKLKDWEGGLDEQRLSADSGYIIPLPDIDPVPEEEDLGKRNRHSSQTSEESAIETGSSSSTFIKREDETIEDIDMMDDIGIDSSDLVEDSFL
Chain of epidermal growth factor (EGF) receptor intracellular domain (P00533 669-1210 limits assumed): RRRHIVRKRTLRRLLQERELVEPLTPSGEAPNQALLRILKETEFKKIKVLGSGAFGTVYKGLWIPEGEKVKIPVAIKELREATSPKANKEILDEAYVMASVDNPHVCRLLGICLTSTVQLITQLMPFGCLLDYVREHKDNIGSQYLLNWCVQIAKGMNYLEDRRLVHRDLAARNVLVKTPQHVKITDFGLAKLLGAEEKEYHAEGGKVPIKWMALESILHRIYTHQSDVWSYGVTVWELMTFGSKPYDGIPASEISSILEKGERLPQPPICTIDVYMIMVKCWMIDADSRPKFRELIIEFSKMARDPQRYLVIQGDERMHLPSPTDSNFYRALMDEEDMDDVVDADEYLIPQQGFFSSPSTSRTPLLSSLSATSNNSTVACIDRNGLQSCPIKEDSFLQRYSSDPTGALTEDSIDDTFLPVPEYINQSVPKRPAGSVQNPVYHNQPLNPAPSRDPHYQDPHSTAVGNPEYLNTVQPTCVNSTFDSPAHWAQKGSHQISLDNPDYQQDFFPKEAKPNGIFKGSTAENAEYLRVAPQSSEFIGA
Chain of VEGF-R2 (P35968 20-1356, species assumed): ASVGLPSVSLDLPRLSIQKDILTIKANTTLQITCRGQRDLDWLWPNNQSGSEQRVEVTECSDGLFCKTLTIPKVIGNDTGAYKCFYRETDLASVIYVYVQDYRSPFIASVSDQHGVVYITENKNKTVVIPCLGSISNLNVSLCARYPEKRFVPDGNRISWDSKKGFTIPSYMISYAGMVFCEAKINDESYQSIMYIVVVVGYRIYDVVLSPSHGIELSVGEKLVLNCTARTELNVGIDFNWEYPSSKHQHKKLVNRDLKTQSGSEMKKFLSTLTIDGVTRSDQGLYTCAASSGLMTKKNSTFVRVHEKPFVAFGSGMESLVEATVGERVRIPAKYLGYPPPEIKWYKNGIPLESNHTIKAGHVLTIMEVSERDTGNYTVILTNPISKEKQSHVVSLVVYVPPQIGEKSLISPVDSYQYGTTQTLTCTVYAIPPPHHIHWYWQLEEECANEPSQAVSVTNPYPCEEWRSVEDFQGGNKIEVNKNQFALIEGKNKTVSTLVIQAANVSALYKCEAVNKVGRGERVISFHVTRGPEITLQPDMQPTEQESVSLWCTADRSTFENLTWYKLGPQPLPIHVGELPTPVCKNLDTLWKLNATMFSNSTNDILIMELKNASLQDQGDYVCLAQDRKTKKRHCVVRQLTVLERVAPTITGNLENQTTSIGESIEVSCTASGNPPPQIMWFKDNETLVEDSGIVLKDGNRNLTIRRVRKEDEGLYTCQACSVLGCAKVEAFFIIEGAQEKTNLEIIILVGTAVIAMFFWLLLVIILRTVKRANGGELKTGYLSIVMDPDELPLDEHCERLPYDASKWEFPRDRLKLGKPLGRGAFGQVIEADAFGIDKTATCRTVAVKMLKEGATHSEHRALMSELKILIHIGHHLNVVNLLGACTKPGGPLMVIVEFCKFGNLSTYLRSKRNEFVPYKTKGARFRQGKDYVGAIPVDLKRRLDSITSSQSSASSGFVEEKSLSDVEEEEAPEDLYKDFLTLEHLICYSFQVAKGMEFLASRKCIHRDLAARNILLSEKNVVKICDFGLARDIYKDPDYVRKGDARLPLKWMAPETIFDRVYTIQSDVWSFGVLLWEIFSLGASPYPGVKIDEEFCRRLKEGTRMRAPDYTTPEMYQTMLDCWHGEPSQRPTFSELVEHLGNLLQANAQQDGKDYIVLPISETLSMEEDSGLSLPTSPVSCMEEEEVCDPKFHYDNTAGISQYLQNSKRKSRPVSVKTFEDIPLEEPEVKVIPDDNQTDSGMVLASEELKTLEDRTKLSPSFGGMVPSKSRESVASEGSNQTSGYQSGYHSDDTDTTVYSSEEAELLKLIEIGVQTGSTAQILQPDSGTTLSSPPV
Chain of CYP3A4 (P08684 whole entry): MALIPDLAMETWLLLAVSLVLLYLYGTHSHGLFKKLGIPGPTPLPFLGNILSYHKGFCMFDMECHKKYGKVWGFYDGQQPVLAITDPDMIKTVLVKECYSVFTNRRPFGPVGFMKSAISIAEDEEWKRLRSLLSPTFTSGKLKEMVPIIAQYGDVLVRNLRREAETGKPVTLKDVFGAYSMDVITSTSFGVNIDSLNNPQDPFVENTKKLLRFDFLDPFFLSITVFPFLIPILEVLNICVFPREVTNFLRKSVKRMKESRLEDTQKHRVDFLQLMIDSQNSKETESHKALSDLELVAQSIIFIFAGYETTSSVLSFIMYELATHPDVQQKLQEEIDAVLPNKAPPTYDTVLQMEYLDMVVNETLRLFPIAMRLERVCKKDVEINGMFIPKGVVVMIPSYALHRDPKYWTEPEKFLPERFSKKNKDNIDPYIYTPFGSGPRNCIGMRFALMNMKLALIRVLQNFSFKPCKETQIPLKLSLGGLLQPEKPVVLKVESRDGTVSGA

For the compound `Cc1ccc(NC(=O)c2ccc(CN3CCN(C)CC3)cc2)cc1Nc1nccc(-c2cccnc2)n1` [imatinib, 4-[(4-methylpiperazin-1-yl)methyl]-N-(4-methyl-3-{[4-(pyridin-3-yl)pyrimidin-2-yl]amino}phenyl)benzamide], in [1], the “fibrosis and quality of life” value is “decreased fibrosis and improved quality of life”. In addition, the serum-induced growth entry in series [2] is “did not affect”. The “imatinib molecules per iron(III) ion” value in “chelation of iron(III)” is “three”. For the same compound, in the series with renal fibrosis, the “action in renal fibrosis” value was “antifibrotic action”. For the same compound, the receptor inhibition entry at PDGFR-α and on PDGFR-β was “potent inhibition” in each case. The SCF-mediated kit activation entry at kit in H526 cells is reported as “inhibited”. Also, the “inhibition of kinase activity” value (at VEGF-R1; in series [3]; on TIE-2 [TEK]; on c-MET; on VEGF-R2) was “weak or no inhibition” in each case. Also, the fibrosis result with cardiac fibrosis is “reversed and prevented fibrosis”; in the series with fibrosis, “reversal of fibrosis”. Besides, the “mRNA for type I collagen and transforming growth factor-beta in the liver” value in series [4] (in vivo) is listed as “suppressed”. In addition, in series [4] (oral), the “effect against hepatic fibrosis” value is “protective effect”. Further, the hepatic hydroxyproline levels result in [4] (oral) is “reduced”. For the same compound, in series [5], the “inhibition of KIT kinase activity” value is “effective”. The “survival of the animals” value at TEL-PDGFRβ was “prolonged survival”. The tumor formation entry on TEL-PDGFRβ is “inhibited tumor formation”. Further, the “severity of doxorubicin-induced toxicity” value in [6] is listed as “reduced the severity”. Besides, the “effect against heavy metal challenge” value in the series with heavy metal challenge was “protective effect”. Besides, the “imatinib molecules to one magnesium ion” value in “chelation of magnesium” is reported as “two”. Further, the “binding by AGP” value in series [7] is reported as “high affinity”. In [8], the “sensitivity of KIT mutants” value is listed as “resistant”. The AUC in “in vivo” (inhaled or intranasal, 1 mg/kg) was determined as 40 ng·h/mL; in the series “in vivo” (po, 5.6 mg/kg), 4900 ng·h/mL. The Cmax was 20 ng/mL in “in vivo” (inhaled or intranasal, 1 mg/kg) and 1100 ng/mL in the series “in vivo” (po, 5.6 mg/kg). Further, in the series on IPF (DICO, change in PVC, 6-minute walk test), the secondary outcome parameters is “no benefit”. Further, in the series with IPF (dose reduction 600 mg to 400 mg daily allowed), the “incidence of AE-related drop-outs” value is listed as 22%. The “primary outcome, time to disease progression” value with IPF (in vivo) is recorded as “no benefit”. Further, the colony formation result in series [9] is on record as “selective inhibition”. In addition, in [10], the “effect on lung fibrosis” value is listed as “antifibrotic effects”. The “tyrosine phosphorylation and in vitro kinase activity of c-kit” value at c-kit is on record as “dose-dependent inhibition”. For the same compound, on KIT receptor (cell line from a GIST patient with an activating Kit mutation), the KIT autophosphorylation entry is recorded as “suppress”. Besides, the “autophosphorylation of the KIT receptor” value in the series with KIT receptor (upon binding of stem-cell factor (SCF)) is recorded as “potently inhibited; also recorded: blocks”. The lung-surface cations result in series [11] is “depletion of essential lung-surface cations”. Further, the “Lung AUC” value in series [12] is 64.1 mg·h/kg. Further, in series [12], the “Lung Cmax” value stood at 13.0 µg/g. Besides, in the series on CML (chronic-phase CML, doses of 300 mg or higher), the “patients achieving a complete haematological response” value is recorded as 98%. In addition, the maximal tolerated dose entry in the series on CML (oral 25 to 1,000 mg per day) is recorded as “no maximal tolerated dose was identified”. Also, the “inhibition of EGF receptor intracellular domain” value in series [13] is “did not inhibit”. Further, the “development of pulmonary fibrosis, early treatment” value in series [14] (Days 0 to 15) was “significantly prevented”. The “development of pulmonary fibrosis, late treatment” value in series [14] (Days 15 to 28) is recorded as “did not”. The “development of pulmonary fibrosis” value in series [14] (mouse, in vivo) was “inhibited the development of pulmonary fibrosis”. For the same compound, the “effect on fibrosis following diabetic challenge” value in series [15] is reported as “fibrosis reversal”. In addition, the “inhibition of liver fibrosis, early treatment” value in the series on liver fibrosis (Days 0 to 21) was “effective”. Also, the “inhibition of liver fibrosis, late treatment” value with liver fibrosis (Days 22 to 35) is “not late”.
For `C#Cc1cccc(Nc2ncnc3cc(OCCOC)c(OCCOC)cc23)c1` [Erlotinib], the metabolism result on CYP3A4 is listed as “mainly metabolized”. Also, the response rate entry with lung cancer (EGFR mutation positive patients) is given as “approximately 60%”. In the series with lung cancer (human, in vivo), the “time to resistance from the start of treatment” value was 8-12 months. The “inhibition of JAK2V617F activity” value on JAK2V617F was “potent inhibitor”.
Consider `O=C1NC(=O)/C(=C/c2ccc3nccc(-c4ccncc4)c3c2)S1` [GSK1059615], for which, in series [16], the exposure entry is “lack of sufficient exposure”.
Turning to `FC(F)c1nc2ccccc2n1-c1nc(N2CCOCC2)nc(N2CCOCC2)n1` [ZSTK474], the inhibition entry on p110a was “potent inhibitor”.
Turning to `CC[C@@H](C(=O)[C@@H](C)[C@@H](O)[C@H](C)[C@@H]1O[C@@H]([C@@H](CC)C(=O)O)CC[C@@H]1C)[C@H]1O[C@]2(C=C[C@@H](O)[C@]3(CC[C@@](C)([C@H]4CC[C@](O)(CC)[C@H](C)O4)O3)O2)[C@H](C)C[C@@H]1C` [Salinomycin], the “effectiveness relative to paclitaxel” value in the series on breast cancer stem cells is “at least 100 times”.
In the case of `Nc1nc(N)c2nc(-c3cccc(O)c3)c(-c3cccc(O)c3)nc2n1` [TG100-115], the “better potency than against the other isoforms” value in the series on p110-γ and p110-δ is reported as 5-10 fold.
For `Cc1c(CN2CCN(S(C)(=O)=O)CC2)sc2c(N3CCOCC3)nc(-c3cnc(N)nc3)nc12` [GNE-477], the pIC50 at mTOR is 7.68.
Consider `CS(=O)(=O)N1CCN(Cc2cc3nc(-c4cccc5[nH]ncc45)nc(N4CCOCC4)c3s2)CC1` [GDC-0941], for which the pIC50 in the series on PI3K was […].

(Values after patent US11980689B2 (AVALYN PHARMA INC., priority 2013, dated 2024).)
